Assay results published in patent US10857180B2, “Pharmaceutical composition for improving health, cure abnormalities and degenerative disease, achieve anti-aging effect of therapy and therapeutic effect on mammals and method thereof” (priority 2014, dated 2020).
Read-outs that look alike come from different tables or passages of the source.

Legend:
[1] = system: COLO 205 cell line; test: Cytogenetic analysis (micronucleus test) of COLO 205 cells; format: cell-based, human; settings: ^39K 2 mg/ml, ^64Zn 20 mcg/ml, ^24Mg 4 mg/ml
Procedure: Advanced Micronucleus Test was used to assess the cytogenetic characteristics of cells after their exposure to the action of the test group of components.
Cytogenetic analysis was carried out after 48 hours of exposure of the cells to the action of the components. For cytogenetic analysis, the cells were incubated in hypotonic solution KCl (0.54%) (Reahim, Ukraine) for 40 minutes at +37° C. Then they were fixed with a mixture of methyl alcohol (Reahim, Ukraine) and acetic acid (Himlaborreaktiv, Ukraine) (3:1) with replacing the fixative three times. All fixed cell suspensions were applied on cold wet glasses, dried and stained with Giemsa stain (Sigma, Germany). The cytogenetic preparations were analyzed using a binocular microscope Sari Zeiss, AxioStarPlus (Germany) with magnification of x 1000. The following quantitative characteristics and stages of cell division were analyzed on the preparations: mitoses, cells with premature chromosome condensation (PCC), cells with micronuclei (CMN), apoptotic cells and cells with nuclear protrusions (protrusions) which were calculated for 1000 cells and expressed in per mille (%).

[2] = system: human breast cancer (MCF-7 line) cells; test: Immunocytochemistry (H-Score) of MCF-7 cells; format: cell-based
Procedure: (§1) When making the immunocytochemistry (ICC) assay, cells on microscope glasses (cytospin preparations) were fixed in the solution (methanol+acetone 1:1) for 2 hours at t 20° C. and incubated with 1% solution of bovine serum albumin (BSA) for 20 minutes. Then the monoclonal antibodies-CD44 (Diagnostic BioSystems), E-cadherin (ThermoScientific), N-cadherin (NeoMarker, BioLegend), SLUG (GeneTex)—were applied for the time period specified by the manufacturer (30 to 60 minutes), after which the Poly Vue imaging system conjugated with peroxidase was used and the enzyme activity was detected using diaminobenzidine (ThermoScientific) as a substrate. After the immunocytochemical reaction the preparations were washed with water and counterstained with hematoxylin-eosin (for 15 to 30 seconds).
(§2) The results were analyzed by counting cells with expression (brown colored cells) using a light microscope, and were assessed using the classical H-Score method: S=1×A+2×B+3×C, where S is the H-Score index giving a range of 0 (protein is not detected) to 300 (high-level expression in 100% of the cells); A is the percentage of weakly staining cells, B is the percentage of moderately staining cells and C is the percentage of strongly staining cells.

[3] = system: renal cell carcinoma (PA) cells; test: Immunocytochemistry (H-Score) of PA cells; format: cell-based, rat
Procedure: When making the immunocytochemistry (ICC) assay, cells on microscope glasses (cytospin preparations) were fixed in the solution (methanol+acetone 1:1) for 2 hours at t 20° C. and incubated with 1% solution of bovine serum albumin (BSA) for 20 minutes. Then the monoclonal antibodies—CD44 (Diagnostic BioSystems), E-cadherin (ThermoScientific), N-cadherin (NeoMarker, BioLegend)—were applied for 60 minutes, after which the Poly Vue imaging system conjugated with peroxidase was used and the enzyme activity was detected using diaminobenzidine (ThermoScientific) as a substrate.
After the immunocytochemical reaction the preparations were washed with water and counterstained with hematoxylin-eosin (for 15-30 seconds). The results were analyzed by counting cells with expression (brown colored cells), using a light microscope and were assessed using the classical H-Score method: S=1×A+2×B+3×C, where S is the H-Score index giving a range of 0 (protein is not detected) to 300 (high-level expression in 100% of the cells); A is the percentage of weakly stained cells, B is the percentage of moderately stained cells and C is the percentage of strongly stained cells.

[4] = system: human colon adenocarcinoma (COLO 205 line) cells; test: Immunocytochemistry (H-Score) of COLO 205 cells; format: cell-based
Procedure: as §1, §2

[5] = system: stem cells derived from rat fibroblasts (RF); format: cell-based
[6] = system: A-549 cell line; test: Scratch assay, A-549 cells; settings: for restoration of the cell monolayer after 72 hours: ^64Zn 20 and 30 mcg/ml, ^39K 2 mg/ml, control restored after 24 hours; for time of restoration of the cell monolayer: dose not stated, 24 hours in the control
[7] = dose not stated, 72 hours in the control

Row | Compound | tumor proliferation (cell division) at the stage of G2/M [1] | number of Slug-positive cells [2] | number of E-cadherin-positive cells [4] | slug transcription factor expression [4] | time of restoration of the cell monolayer [5, 7] [h] | restoration of the cell monolayer after 72 hours [6] | time of restoration of the cell monolayer [6] [h] | further results
1 | O=S(=O)([O-])[O-].[64Zn+2] [^64Zn] | inhibition of tumor proliferation | insignificantly influenced | significantly increased | in the cytoplasm and in the nucleus | 72 | incomplete | 72 | CD44 marker positive cells, H-Score scale ([3]; 3.2 mcg/ml): 126 units; N-cadherin positive cells ([3]; ^64Zn 0.128 mcg/ml): slight increase; number of E-cadherin-positive cells ([3]; ^64Zn 0.128 mcg/ml): increased number; N-cadherin-positive cells ([3]; ^64Zn 3.2 mcg/ml): substantial increase; number of E-cadherin-positive cells ([3]; ^64Zn 3.2 mcg/ml): decrease in the number
2 | O=S(=O)([O-])[O-].[24Mg+2] [^24Mg] | inhibition of tumor proliferation | insignificantly influenced | increasing the number | in the cytoplasm and in the nucleus |  |  | 72 | number of CD44-positive cells ([3]; ^24Mg 2 mg/ml): did not differ from that of control cells; number of CD44-positive cells ([3]; ^24Mg 3.5 mg/ml): increase significantly; number of E-cadherin-positive cells ([3]; ^24Mg in 2 doses): increase in the number; number of cells expressing N-cadherin ([3]; ^24Mg in 2 doses): slight increase; time of restoration of the cell monolayer ([5]; ^24Mg 2 mg/ml): 72 h; time of restoration of the cell monolayer ([5]; ^24Mg 3 mg/ml): 65 to 72 h; time of restoration of the cell monolayer ([5]; ^24Mg 4 mg/ml): 82 h
3 | [39K+].[Cl-] [^39K] | inhibition of tumor proliferation | insignificantly influenced | significantly increased | increased its expression in the cytoplasm | 72 | incomplete | 72 | number of E-cadherin-positive cells ([3]; ^39K 0.4 mg/ml): significantly increased; number of E-cadherin-positive cells ([3]; ^39K 2 mg/ml): significantly reduced; number of CD44-positive cells ([3]; ^39K both doses): significantly increased; N-cadherin ([3]; ^39K dose D2): almost complete inhibition; E-cadherin, H-Score scale ([4]; 87 in the control): 184; time of restoration of the cell monolayer ([5]; ^39K 1 mg/ml): 72 h; time of restoration of the cell monolayer ([5]; ^39K 2 mg/ml): 96 h
